Source: ChEMBL document CHEMBL1201862, “PubChem BioAssay data set” (2004)
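Protocol summary: plate cells (96-well), add compound at 5 concentrations, incubate 48 h, interpolate endpoints linearly. GI50 is the concentration that inhibits growth by half.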 Active and inactive are the calls of the source. Cut-off read from the data, not from the text of the source: active = GI50 up to about 1.1 µM and inactive = higher.

Assays:
Assay in all cases: DTP human tumour cell line panel, 48 h
[1] = system: SR
[2] = system: RXF 393
[3] = system: DU-145
[4] = system: SW-620
[5] = system: SK-MEL-28
[6] = system: ACHN
[7] = system: U-251
[8] = system: OVCAR-5
[9] = system: A498
[10] = system: 786-0
[11] = system: CCRF-CEM
[12] = system: MCF7
[13] = system: A549
[14] = system: OVCAR-4
[15] = system: CAKI-1
[16] = system: HCC 2998
[17] = system: SN12C
[18] = system: OVCAR-8
[19] = system: SF-539
[20] = system: Malme-3M

| Structure (SMILES) | GI50 [1] | GI50 [2] | GI50 [3] | GI50 [4] | GI50 [5] | GI50 [6] | GI50 [7] | GI50 [8] | GI50 [9] | GI50 [10] | GI50 [11] | GI50 [12] | GI50 [13] | GI50 [14] | GI50 [15] | GI50 [16] | GI50 [17] | GI50 [18] | GI50 [19] | GI50 [20] |
| --- | --- | --- | --- | --- | --- | --- | --- | --- | --- | --- | --- | --- | --- | --- | --- | --- | --- | --- | --- | --- |
| O=C(/C=C/c1ccccc1)c1cc(Br)ccc1O | 2.09 µM (inactive) | 18.8 µM (inactive) | 14.9 µM (inactive) | 21 µM (inactive) | 15.5 µM (inactive) | 15.1 µM (inactive) | 15.1 µM (inactive) | 22.3 µM (inactive) | 13.8 µM (inactive) | 13.9 µM (inactive) | 6.3 µM (inactive) | 10.8 µM (inactive) | 24 µM (inactive) | 15.1 µM (inactive) | 15.8 µM (inactive) | 17.5 µM (inactive) | 15.1 µM (inactive) | 16 µM (inactive) |  |  |
| CC(=O)O[C@@H]1[C@H]2[C@@H](OC(=O)c3ccccc3)[C@@H](C)C[C@]2(O)[C@H](OC(C)=O)[C@@]2(C)[C@@H]3CC(C)(C)C(=O)[C@]3(OC(C)=O)C[C@@]12C | 20.7 µM (inactive) | > 25 µM (inactive) | > 25 µM (inactive) | 24.3 µM (inactive) |  | > 25 µM (inactive) | > 25 µM (inactive) | > 25 µM (inactive) | 12.8 µM (inactive) | 17.1 µM (inactive) | 1.92 µM (inactive) | > 25 µM (inactive) |  | > 25 µM (inactive) | 13.4 µM (inactive) | 6.9 µM (inactive) | > 25 µM (inactive) | 20.6 µM (inactive) | 13.2 µM (inactive) |  |
| O=c1nc(Oc2c(F)c(F)c(F)c(F)c2F)ccn1C1OC(CO)C(O)C1O (stereo unspecified) | 58.1 µM (inactive) | > 100 µM (inactive) | > 100 µM (inactive) | > 100 µM (inactive) | > 100 µM (inactive) | > 100 µM (inactive) | > 100 µM (inactive) | > 100 µM (inactive) | > 100 µM (inactive) | > 100 µM (inactive) | > 100 µM (inactive) | > 100 µM (inactive) | > 100 µM (inactive) | > 100 µM (inactive) | > 100 µM (inactive) | > 100 µM (inactive) | > 100 µM (inactive) | > 100 µM (inactive) | > 100 µM (inactive) |  |
| O=C(N/N=C/C=C/c1ccccc1)c1ccccc1Nc1ccccc1C(=O)N/N=C/C=C/c1ccccc1 | 12.8 µM (inactive) | 20.5 µM (inactive) | > 100 µM (inactive) | > 100 µM (inactive) | > 100 µM (inactive) | > 100 µM (inactive) | 20.8 µM (inactive) | > 100 µM (inactive) | > 100 µM (inactive) | > 100 µM (inactive) | 12.5 µM (inactive) | > 100 µM (inactive) | > 100 µM (inactive) | 67.9 µM (inactive) | > 100 µM (inactive) | > 100 µM (inactive) | > 100 µM (inactive) | > 100 µM (inactive) |  | > 100 µM (inactive) |
| CCCCOP(=O)(OCCCC)/C(C#N)=C/c1ccc(C)o1 | 51.6 µM (inactive) | 26.7 µM (inactive) | > 100 µM (inactive) | 95.9 µM (inactive) | 60.8 µM (inactive) | 42.2 µM (inactive) | 93.3 µM (inactive) | 86.3 µM (inactive) | 56 µM (inactive) | 37.1 µM (inactive) |  | 22.6 µM (inactive) | 47.2 µM (inactive) | 46.8 µM (inactive) | 60.5 µM (inactive) | > 100 µM (inactive) | 56.1 µM (inactive) | 53.6 µM (inactive) | 61.1 µM (inactive) | 29.6 µM (inactive) |
| COC(=O)C1=C(C)NC(CF)=C(C(=O)OC)C1c1cccc2c(=O)c3ccccc3oc12 (stereo unspecified) | 9.4 µM (inactive) | 11.7 µM (inactive) | 90.4 µM (inactive) | 1.73 µM (inactive) | 16 µM (inactive) | 15.1 µM (inactive) |  | > 100 µM (inactive) | 5.53 µM (inactive) | 7.38 µM (inactive) | 5.28 µM (inactive) | 4.94 µM (inactive) | 9.46 µM (inactive) | 10.2 µM (inactive) | 11.9 µM (inactive) | 6.59 µM (inactive) | 4.63 µM (inactive) | 19.9 µM (inactive) | 24.3 µM (inactive) | 11.2 µM (inactive) |
| O=C1/C(=C/c2ccc(Cl)cc2)N=C(c2ccccc2)N1c1nc2ccccc2s1 | 0.0537 µM (active) | > 100 µM (inactive) | 78.2 µM (inactive) | 64 µM (inactive) | 52.6 µM (inactive) | 62.5 µM (inactive) | 42.8 µM (inactive) | > 100 µM (inactive) | 30.5 µM (inactive) | > 100 µM (inactive) | 47.1 µM (inactive) | 40.1 µM (inactive) |  | 53.1 µM (inactive) | 58.9 µM (inactive) | 42.7 µM (inactive) |  | 59.4 µM (inactive) | > 100 µM (inactive) |  |
| O=C(O)CCC/N=C(\C(=N\CCCC(=O)O)c1ccccc1)c1ccccc1 | > 100 µM (inactive) | > 100 µM (inactive) | > 100 µM (inactive) | > 100 µM (inactive) | > 100 µM (inactive) | > 100 µM (inactive) | > 100 µM (inactive) | > 100 µM (inactive) | > 100 µM (inactive) | > 100 µM (inactive) |  | > 100 µM (inactive) | > 100 µM (inactive) | > 100 µM (inactive) |  | > 100 µM (inactive) | > 100 µM (inactive) | > 100 µM (inactive) |  |  |
| Cc1nc2c(O)cc3c4c(=O)n(C)c(=O)n(C)c4n(Cc4ccccc4)c3c2nc1C | 24.4 µM (inactive) | 13.2 µM (inactive) | 18.3 µM (inactive) | 19.5 µM (inactive) | 14.3 µM (inactive) | 17.9 µM (inactive) | 18.3 µM (inactive) | 22.6 µM (inactive) | 33 µM (inactive) | 17 µM (inactive) | 4.99 µM (inactive) | 15.8 µM (inactive) | 19.2 µM (inactive) | 11.1 µM (inactive) |  | 22.7 µM (inactive) | 19.9 µM (inactive) | 18.3 µM (inactive) | 16 µM (inactive) | 18.7 µM (inactive) |
| O=C(O)C1=C/C(=C(/c2ccccc2)c2cc(C(=O)O)c(O)c3ccccc23)c2ccccc2C1=O | > 100 µM (inactive) | > 100 µM (inactive) | > 100 µM (inactive) | > 100 µM (inactive) | > 100 µM (inactive) | > 100 µM (inactive) | > 100 µM (inactive) | > 100 µM (inactive) | > 100 µM (inactive) | > 100 µM (inactive) | < 0.01 µM (active) | > 100 µM (inactive) | > 100 µM (inactive) | > 100 µM (inactive) | > 100 µM (inactive) | > 100 µM (inactive) | > 100 µM (inactive) | > 100 µM (inactive) | > 100 µM (inactive) | > 100 µM (inactive) |
| C/C(=C\c1csc(C)n1)[C@@H]1C[C@@H]2O[C@@H]2CCC[C@H](C)[C@H](O)[C@@H](C)C(=O)C(C)(C)[C@@H](O)CC(=O)O1 [EPOTHILONE A] | < 0.0001 µM (active) | < 0.0001 µM (active) | < 0.0001 µM (active) | < 0.0001 µM (active) |  | < 0.0001 µM (active) | < 0.0001 µM (active) | < 0.0001 µM (active) | < 0.0001 µM (active) | < 0.0001 µM (active) | < 0.0001 µM (active) | < 0.0001 µM (active) | < 0.0001 µM (active) | 0.124 µM (active) | < 0.0001 µM (active) | < 0.0001 µM (active) | < 0.0001 µM (active) | < 0.0001 µM (active) | < 0.0001 µM (active) |  |
